# Data from PMC9224473 (International Journal of Molecular Sciences, 2022).
# What was measured:
# [1] = system: S. aureus ATCC 6538; assay: MIC, broth microdilution, standard strain; type: cell-based, Staphylococcus aureus; conditions: Staphylococcus aureus, ATCC6538, 19 h, 35 °C
# [2] = system: E. coli 600; assay: MIC, broth microdilution, clinical strain; type: cell-based, Escherichia coli; conditions: Escherichia coli, 600, 19 h, 35 °C
# [3] = system: S. aureus NCTC 4163; assay: MIC, broth microdilution, standard strain; type: cell-based, Staphylococcus aureus; conditions: Staphylococcus aureus, NCTC4163, 19 h, 35 °C
# [4] = system: S. aureus T 5595; assay: MIC, broth microdilution, clinical strain; type: cell-based, Staphylococcus aureus; conditions: Staphylococcus aureus, T5595, 19 h, 35 °C
# [5] = system: S. pasteuri KR 4358; assay: MIC, broth microdilution, clinical strain; type: cell-based, Staphylococcus pasteuri; conditions: Staphylococcus pasteuri, KR4358, 19 h, 35 °C
# [6] = system: S. epidermidis ATCC 35984; assay: MIC, broth microdilution, standard strain; type: cell-based, Staphylococcus epidermidis; conditions: Staphylococcus epidermidis, ATCC35984, 19 h, 35 °C
# [7] = system: S. aureus ATCC 29213; assay: MIC, broth microdilution, standard strain; type: cell-based, Staphylococcus aureus; conditions: Staphylococcus aureus, ATCC29213, 19 h, 35 °C
# [8] = system: P. aeruginosa ATCC 15442; assay: MIC, broth microdilution, standard strain; type: cell-based, Pseudomonas aeruginosa; conditions: Pseudomonas aeruginosa, ATCC15442, 19 h, 35 °C
# [9] = system: S. epidermidis KR 4243; assay: MIC, broth microdilution, clinical strain; type: cell-based, Staphylococcus epidermidis; conditions: Staphylococcus epidermidis, KR4243, 19 h, 35 °C
# [10] = system: S. aureus ATCC 25923; assay: MIC, broth microdilution, standard strain; type: cell-based, Staphylococcus aureus; conditions: Staphylococcus aureus, ATCC25923, 19 h, 35 °C
# [11] = system: standard Gram-positive Staphylococci; assay: MIC, panel of standard Gram-positive strains; type: cell-based, Staphylococcus; conditions: range over all standard Gram-positive Staphylococci
# [12] = system: E. coli 510; assay: MIC, broth microdilution, clinical strain; type: cell-based, Escherichia coli; conditions: Escherichia coli, 510, 19 h, 35 °C
# [13] = system: S. epidermidis ATCC 12228; assay: MIC, broth microdilution, standard strain; type: cell-based, Staphylococcus epidermidis; conditions: Staphylococcus epidermidis, ATCC12228, 19 h, 35 °C
# [14] = system: HaCaT (human immortal keratinocyte cell line); assay: MTT cytotoxicity assay; type: cell-based; conditions: Homo sapiens, HaCaT, 72 h, mean SD, read-out: IC50 HaCaT (normal cells)
# In short: (§1)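 Cells were seeded at 1 × 10^4/well, adhered 24 h, then treated for 72 h at 37 °C/5% CO2 against an untreated control. Viability was read as MTT reduction (0.5 mg/mL, 4 h; formazan in DMSO/isopropanol, 570 nm) relative to control, three repeats, with IC50 estimated from the data.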
# [15] = system: SW480 (human primary colon cancer); assay: MTT cytotoxicity assay; type: cell-based; conditions: Homo sapiens, SW480, 72 h, mean SD
# In short: as §1
# [16] = system: HCT116 (human colon cancer); assay: MTT cytotoxicity assay; type: cell-based; conditions: Homo sapiens, HCT-116, 72 h, mean SD
# In short: as §1
# [17] = system: HepG2 (human liver cancer); assay: MTT cytotoxicity assay; type: cell-based; conditions: Homo sapiens, HepG2, 72 h, mean SD
# In short: as §1
# [18] = system: P. aeruginosa 659; assay: MIC, broth microdilution, clinical strain; type: cell-based, Pseudomonas aeruginosa; conditions: Pseudomonas aeruginosa, 659, read-out: MIC P. aeruginosa 659, 19 h, 35 °C
# [19] = system: S. aureus T 5591; assay: MIC, broth microdilution, clinical strain; type: cell-based, Staphylococcus aureus; conditions: Staphylococcus aureus, T5591, 19 h, 35 °C
# [20] = system: SW620 (human metastatic colon cancer); assay: MTT cytotoxicity assay; type: cell-based; conditions: Homo sapiens, SW-620, 72 h, mean SD
# In short: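 SW620 lymph-node metastatic colon cancer cells (MEM, 10% FBS, 37 °C/5% CO2) treated with compounds; viability by MTT reduction, formazan dissolved in DMSO/isopropanol 1:1, read at 570 nm.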
# [21] = system: E. coli 520; assay: MIC, broth microdilution, clinical strain; type: cell-based, Escherichia coli; conditions: Escherichia coli, 520, 19 h, 35 °C
# [22] = system: E. coli ATCC 25922; assay: MIC, broth microdilution, standard strain; type: cell-based, Escherichia coli; conditions: 35 °C
structure (smiles),measurement,setting,value
"Cc1ccc(C(C)C)c(OC(=O)CCCN2CCN(c3cc4c(cc3F)c(=O)c(C(=O)O)cn4C3CC3)CC2)c1 [Compound 12, 1-cyclopropyl-6-fluoro-7-{4-[4-(2-isopropyl-5-methylphenoxy)-4-oxobutyl]piperazin-1-yl}-4-oxo-1,4-dihydroquinoline-3-carboxylic acid]",MIC,[1],1.6 µg/mL
same,MIC,[2],4 µg/mL
same,MIC,[3],1.6 µg/mL
same,MIC,[4],4 µg/mL
same,MIC,[5],1 µg/mL
same,MIC,[6],0.8 µg/mL
same,MIC,[7],0.8 µg/mL
same,MIC,[8],12.8 µg/mL
same,MIC,[9],2 µg/mL
same,MIC,[10],0.8 µg/mL
same,MIC range against standard Gram-positive strains,[11],0.8 to 1.6 µg/mL
same,MIC,[12],128 µg/mL
same,MIC,[13],0.8 µg/mL
same,IC50,[14],59.1 ± 3.1 µM
same,IC50,[15],33.7 ± 3.5 µM
same,IC50,[16],28.6 ± 0.1 µM
same,IC50,[17],43.4 ± 3.1 µM
same,MIC,[18],64 µg/mL
same,MIC,[19],1 µg/mL
same,IC50,[20],61.8 ± 0.1 µM
same,MIC,[21],8 µg/mL
same,MIC E. coli ATCC 25922,[22]; 19 h,3.2 µg/mL
same,MIC,"[22]; Escherichia coli, ATCC25922, 19 h",2 to 4 µg/mL
